Source: publication PMC7278776, “Multidrug Resistance Modulation Activity of Silybin Derivatives and Their Anti-Inflammatory Potential” (Antioxidants, 2020)
Like-named read-outs stand apart in the source and are kept apart here.

Experiments:
[1] = test system: ABCG4; assay: ABCG4 mRNA expression (real-time PCR); assay type: cell-based, human; details: for ABCG4 Expression Difference / ABCG4 Treated vs. Untreated: A2780/DOX
Experimental: (§1) The A2780/DOX cell line was seeded into 5 cm Petri dishes with DMEM medium at 1 × 10^5 cell/mL. […] After 48 h of treatment, the cells were washed with PBS and harvested using the standard trypsin-EDTA procedure. The harvested cells were centrifuged (3200× g; 10 min, 4 °C). The supernatant was discarded, and the pellets were washed with 1.5 mL of cooled PBS (5400× g; 10 min, 4 °C). The washing step was repeated with 1 mL of PBS and the cells were centrifuged again (10,000× g; 3 min, 4 °C). Afterwards, the pellets were resuspended in 1 mL of Trizol (Invitrogen, Carlsbad, CA, USA) and transferred into pre-cooled RNase-free microfuge tubes. The samples were stored at −80 °C.
(§2) A Quant-iT RiboGreen RNA Assay Kit (Invitrogen) was used to determine the RNA concentration using the Infinite M200 plate reader (Tecan, Männedor, Switzerland). The cDNA was prepared from 0.5 µg of total RNA using a RevertAid First Strand Synthesis cDNA Kit (MBI Fermentas, Vilnius, Lithuania). The amplification of the ubiquitin C gene fragment was used to determine the quality of cDNA.
(§3) The experiment was performed using the ViiA7 Real-Time polymerase chain reaction (PCR) System (Life Technologies, Camarillo, CA, USA) with a 384-well block. Before quantitative real-time PCR, the master mix was prepared by mixing 2 µL of 8 × diluted cDNA, 1.75 µL of RNase free water, 1 µL of 5 × HotFIREPol Probe quantitative PCR Mix Plus (Solis Biodyne, Tartu, Estonia) and 0.25 µL of specific 20 × TaqMan Gene Expression Assay (Life Technologies), giving 5 µL of final reaction volume. Cycling parameters were: initial hold at 50 °C for 2 min and denaturation at 95 °C for 10 min, followed by 45 cycles consisting of denaturation at 95 °C for 15 s and annealing/extension at 60 °C for 1 min. After each extension phase, the fluorescence values were acquired. Duplicate samples were used for measurement and samples with a standard deviation of duplicates > 1.0 cycle threshold (Ct) were re-analyzed. The real time PCR procedure was maintained according to MIQE (Minimum information for publication of quantitative real-time PCR experiments) guidelines. The software REST 2009 (Qiagen, Hilden, Germany) served to compare relative transcript levels of genes in the cell line.

[2] = test system: ABCC10; assay: ABCC10 mRNA expression (real-time PCR); assay type: cell-based, human; details: A2780/DOX
Experimental: as §1, §2, §3

[3] = biological target: T1, human recombinant P-gp (Homo sapiens, UniProt P08183); assay: biochemical
T1 construct: purchased Promega
Experimental: The procedure and the dilution of the reagents were performed according to the manufacturer’s instructions. Briefly, the human recombinant P-gp-containing membrane (25 µg) was mixed in a 96-well plate with P-gp–Glo™ Assay buffer (control), verapamil (P-gp substrate, positive control, 0.2 mM), Na3VO4 (P-gp inhibitor, negative control, 0.1 mM), ATP standards (to construct the calibration curve, 0.375–3 mM) or samples (2.5 µL, in the concentration range 0.7–20 mM). After that, MgATP (5 mM) was added to total volume of 50 µL to each well to initiate the ATPase reaction. The plate was incubated for 1 h at 37 °C. Thereafter, the reaction was stopped by adding 50 µL of ATP detection reagent and incubated at room temperature for 20 min. The remaining non-metabolized ATP was detected as a luciferase-generated signal.
Using linear regression, the standard ATP curve was designed, and by subsequent interpolation of relative luminescence (RLU) of standards, the amount of ATP consumed in the samples was recalculated according to the manufacturer’s guidelines.

[4] = test system: ABCB10; assay: ABCB10 mRNA expression (real-time PCR); assay type: cell-based, human; details: A2780/DOX
Experimental: as §1, §2, §3

[5] = test system: nitric oxide (NO) production by LPS-stimulated macrophages (RAW 264.7); assay: NO production by LPS-stimulated macrophages (Griess); assay type: cell-based, mouse; details: for IC50: Mus musculus, read-out: NO Production, concentration necessary to halve NO production (IC50)
Experimental: Immunomodulatory effect of tested compounds was determined as their ability to decrease nitric oxide (NO) production by LPS-stimulated macrophages (RAW 264.7, Sigma-Aldrich). Briefly, the cells were seeded into the 96-well plate at a density of 1 × 10^6 cells/mL in DMEM medium (supplemented with 2 mM L-glutamine and 1 × antibiotic antimycotic solution). After 48 h, the cells were washed with PBS. The MEM medium enriched with LPS (1 µg/mL) was added to the wells, together with the samples in the concentration range of 6.25–100 µM at a final volume of 100 µL. Indomethacin, a non-steroidal anti-inflammatory drug, was tested as a positive control in the concentration range 6.25–100 µM. After 24 h, the medium was used for the quantification of NO and inflammatory cytokines.
After 15 min, absorbance was recorded at 540 nm.

[6] = test system: HepG2 cells; assay: CAA (cellular antioxidant activity) assay; assay type: cell-based; details: Homo sapiens
Experimental: For the CAA assay, human hepatocellular carcinoma HepG2 cells (ATCC, Manassas, VA, USA) were seeded into a 96-well microplate at a density of 1 × 10^5 cells/well in EMEM medium supplemented with 10% of FBS, 2 mM L-glutamine and 1 × antibiotic antimycotic solution. The cells were maintained in a CO2 incubator (5% CO2, 37 °C, Memmert GmbH & Co, Büchenbach, Germany). The following day, the plates were washed with PBS and new fresh DMEM was added into each well supplemented with tested samples in the concentration range of 6.25–100 µM and fluorescent probe DCFH-DA (12.5 mg/L). After 1 h of incubation at 37 °C, the medium was replaced with AAPH solution (0.16 mg/mL in PBS), except for the negative control, where PBS was added instead. Directly, the fluorescence was recorded for 2 h in 5 min steps at 485/540 nm excitation/emission (ex./em.).

[7] = biological target: acetylcholinesterase (Homo sapiens, UniProt P22303); assay: Acetylcholinesterase activity, Ellman colorimetric method; assay type: biochemical
Experimental: The activity of acetylcholinesterase was measured by the Ellman colorimetric method. A stock solution of acetylcholinesterase was prepared in PBS (0.057 U/mL), 100× diluted and stored in a freezer (−20 °C). Further, the solution of DTNB (5,5′-dithio-bis-2-nitrobenzoic acid, 50 µM) and ATC ([…], 50 µM) was prepared. […] Afterwards, 10 µL of DNTB and ATC solution was added, and the reaction was launched. After the addition of reagents, the absorbance at 412 nm was recorded for 10 min every minute.

[8] = 10 µM, 48 h, without doxorubicin
[9] = 10 µM combined with doxorubicin at IC25, 48 h
[10] = HepG2, read-out: CAA, concentration necessary to halve the fluorescence response (IC50)
[11] = RAW264.7, RAW 264.7, LPS 1 µg/mL, 24 h
[12] = HepG2, DCFH-DA/AAPH, read-out: CAA, concentration necessary to halve the fluorescence response (IC50)

Sequence of acetylcholinesterase (P22303 32-614, species assumed): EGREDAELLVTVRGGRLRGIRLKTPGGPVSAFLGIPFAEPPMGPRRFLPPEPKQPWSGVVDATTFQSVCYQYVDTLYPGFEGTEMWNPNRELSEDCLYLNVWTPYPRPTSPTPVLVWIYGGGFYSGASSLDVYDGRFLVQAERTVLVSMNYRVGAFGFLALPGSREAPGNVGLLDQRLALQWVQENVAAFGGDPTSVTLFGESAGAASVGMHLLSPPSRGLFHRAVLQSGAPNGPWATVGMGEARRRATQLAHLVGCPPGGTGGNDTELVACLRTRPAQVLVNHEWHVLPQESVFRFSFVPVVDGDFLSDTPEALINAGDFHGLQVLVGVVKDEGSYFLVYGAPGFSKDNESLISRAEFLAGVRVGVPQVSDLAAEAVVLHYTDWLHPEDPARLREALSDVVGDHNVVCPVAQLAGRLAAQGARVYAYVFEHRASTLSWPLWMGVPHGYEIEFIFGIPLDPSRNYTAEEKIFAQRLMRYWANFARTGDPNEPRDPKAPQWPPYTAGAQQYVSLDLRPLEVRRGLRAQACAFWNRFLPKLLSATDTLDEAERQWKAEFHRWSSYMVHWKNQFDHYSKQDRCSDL
T1 sequence (P08183 whole entry): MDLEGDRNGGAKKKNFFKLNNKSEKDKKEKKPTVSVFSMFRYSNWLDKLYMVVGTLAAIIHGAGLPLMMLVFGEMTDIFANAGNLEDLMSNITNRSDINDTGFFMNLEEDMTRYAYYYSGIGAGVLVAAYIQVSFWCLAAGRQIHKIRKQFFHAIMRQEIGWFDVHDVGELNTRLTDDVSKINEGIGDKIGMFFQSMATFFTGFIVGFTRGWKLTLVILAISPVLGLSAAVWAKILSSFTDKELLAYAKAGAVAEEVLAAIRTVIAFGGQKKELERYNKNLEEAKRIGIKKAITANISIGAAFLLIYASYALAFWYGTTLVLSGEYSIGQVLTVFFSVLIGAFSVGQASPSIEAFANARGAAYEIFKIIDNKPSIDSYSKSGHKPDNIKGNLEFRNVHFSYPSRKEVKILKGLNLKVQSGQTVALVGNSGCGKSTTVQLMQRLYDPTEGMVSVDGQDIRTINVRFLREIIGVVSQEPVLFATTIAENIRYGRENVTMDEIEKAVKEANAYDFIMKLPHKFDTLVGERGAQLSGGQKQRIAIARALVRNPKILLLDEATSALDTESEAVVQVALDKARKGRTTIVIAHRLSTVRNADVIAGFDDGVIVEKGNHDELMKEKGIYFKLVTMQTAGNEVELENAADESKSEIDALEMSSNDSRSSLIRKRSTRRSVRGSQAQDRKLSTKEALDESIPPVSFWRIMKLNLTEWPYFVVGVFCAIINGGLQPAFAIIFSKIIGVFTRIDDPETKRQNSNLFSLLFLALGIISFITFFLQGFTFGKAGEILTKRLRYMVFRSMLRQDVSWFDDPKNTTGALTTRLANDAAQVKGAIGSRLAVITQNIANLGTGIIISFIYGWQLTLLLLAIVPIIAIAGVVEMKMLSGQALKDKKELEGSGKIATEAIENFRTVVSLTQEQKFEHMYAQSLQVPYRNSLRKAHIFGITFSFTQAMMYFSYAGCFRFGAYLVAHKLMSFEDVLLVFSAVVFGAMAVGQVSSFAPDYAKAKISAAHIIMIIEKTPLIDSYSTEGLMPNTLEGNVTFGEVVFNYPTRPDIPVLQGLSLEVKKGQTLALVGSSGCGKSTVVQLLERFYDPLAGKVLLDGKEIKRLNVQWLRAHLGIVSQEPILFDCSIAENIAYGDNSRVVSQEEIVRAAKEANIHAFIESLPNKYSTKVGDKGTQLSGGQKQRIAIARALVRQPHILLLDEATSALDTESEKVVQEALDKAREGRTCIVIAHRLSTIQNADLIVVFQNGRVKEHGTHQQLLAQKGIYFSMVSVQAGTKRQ

Row | Structure (SMILES) | downregulation of ABCG4 expression [1, 8] | ABCG4 Expression Difference [1, 9] | ABCG4 Expression Difference [1, 8] | ABCG4 Treated vs. Untreated [1, 8] | ABCC10 Expression Difference [2, 9] | ABCC10 Expression Difference [2, 8] | IC50 [3] | ABCB10 Expression Difference [4, 9] | ABCB10 Expression Difference [4, 8] | IC50 ([5]; RAW264.7, 24 h) | IC50 [6, 10] | IC50 [7] | inhibition of acetylcholinesterase activity relative to single isomers [7] | immunomodulation effect lower compared to its diastereomeric mixture ([5]; NO production, vs dehydrosilybin AB) | IC50 [5, 11] | IC50 [6, 12] | ABCC10 Treated vs. Untreated [2, 8] | ABCB10 Treated vs. Untreated [4, 9] | ABCB10 Treated vs. Untreated [4, 8]
1 | COc1cc([C@H]2Oc3cc(-c4oc5cc(O)cc(O)c5c(=O)c4O)ccc3O[C@@H]2CO)ccc1O [Dehydrosilybin A, 2,3-dehydrosilybin A] | 5% | 1.992 | 0.950 | DOWN | 1.214 | 1.200 | 60.7 ± 10 µM | 1.020 | 1.236 | 23.2 ± 1.4 µM | 11.8 ± 0.7 µM | 6.9 ± 0.6 µM |  |  |  |  |  |  | 
2 | COc1cc(C2Oc3cc(-c4oc5cc(O)cc(O)c5c(=O)c4O)ccc3OC2CO)ccc1O (stereo not shown) [Dehydrosilybin AB, 2,3-dehydrosilybin] |  | 2.008 | 1.162 |  | 1.323 | 1.471 | 21.1 ± 0.6 µM | 1.119 | 1.589 | 19.1 ± 0.2 µM | 9.2 ± 0.5 µM | 2.7 ± 0.3 µM | 2.5 × |  |  |  |  |  | 
3 | COc1cc([C@@H]2Oc3cc(-c4oc5cc(O)cc(O)c5c(=O)c4O)ccc3O[C@H]2CO)ccc1O [Dehydrosilybin B, 2,3-dehydrosilybin B] | 26% | 2.860 | 0.736 | DOWN | 1.618 | 1.107 | 40.7 ± 3.8 µM | 1.221 | 1.186 | 31.3 ± 2.4 µM | 12.1 ± 0.4 µM | 6.8 ± 0.8 µM |  | approximately 40% |  |  |  |  | 
4 | COc1cc([C@H]2Oc3cc([C@H]4Oc5cc(O)cc(O)c5C(=O)[C@@H]4O)ccc3O[C@@H]2CO)ccc1O [Silybin A, silybin A] |  | 4.751 | 1.185 |  | 1.812 | 1.260 | 43.1 ± 6.4 µM | 1.060 | 1.136 |  |  | 181 ± 6.1 µM |  |  | 26.7 ± 1.6 µM | 9.8 ± 0.4 µM |  |  | 
5 | COc1cc(C2Oc3cc([C@H]4Oc5cc(O)cc(O)c5C(=O)[C@@H]4O)ccc3OC2CO)ccc1O (stereo partly shown) [Silybin AB, silybin] |  | 5.289 | 1.846 |  | 1.855 | 1.857 | 32.6 ± 3.6 µM | 1.069 | 2.204 |  |  | 22.6 ± 1.4 µM |  |  | 23.6 ± 1.2 µM | 10.7 ± 0.9 µM |  |  | 
6 | COc1cc([C@@H]2Oc3cc([C@H]4Oc5cc(O)cc(O)c5C(=O)[C@@H]4O)ccc3O[C@H]2CO)ccc1O [Silybin B, silybin B] |  | 4.110 | 0.366 | DOWN | 1.349 | 0.340 | 51.9 ± 2.1 µM | 0.835 | 0.329 |  |  | 83.7 ± 6.4 µM |  |  | 26 ± 3 µM | 8.9 ± 0.3 µM | DOWN | DOWN | DOWN
